Measured values as given in PMC9151520 (Archives of Toxicology, 2022).
Values joined by “and” are separate entries in the source; they are usually repeats but may differ in a detail not shown here. Identical values can stand only once. Counter-ions that a name gives are not always drawn. Like-named read-outs stand apart in the source and are kept apart here.

Tests used:
[1] = system: p53 signaling (p53RE-bla HCT-116 cells); assay: cells; type: cell-based; details: for Emax / EC50: Homo sapiens
[2] = system: p53 signaling (p53RE-bla HCT-116 cells)
[3] = system: p53 signaling (p53RE-bla HCT-116 cells); remark: listed apart in the source
p53RE-bla HCT-116 cells [4] = system: p53RE-bla HCT-116 cells
[5] = system: p53 signaling (p53RE-bla HCT-116 cells); assay: cells; details: Homo sapiens; for EC50: HCT-116, read-out: p53 activation EC50, primary screening
p53RE-bla HCT-116 cells [6] = assay: cells; details: Homo sapiens
[7] = rat
[8] = HCT-116, read-out: p53 activation efficacy
[9] = HCT-116, read-out: p53 activation efficacy, primary screening
[10] = HCT-116, read-out: Viability EC50, cherry pick confirmation
[11] = HCT-116, read-out: Viability EC50, primary screening
[12] = HCT-116, read-out: EC50, p53 activation, cherry pick confirmation
[13] = HCT-116, read-out: EC50, p53 activation, primary screening
[14] = HCT-116, read-out: Efficacy, p53 activation, cherry pick confirmation
[15] = HCT-116, read-out: Efficacy, p53 activation, primary screening
[16] = HCT-116, read-out: EC50, viability, cherry pick confirmation
[17] = HCT-116, read-out: EC50, viability, primary screening
[18] = HCT-116, read-out: p53 activation EC50, cherry pick confirmation
[19] = HCT-116, read-out: p53 activation EC50, primary screening
[20] = HCT-116, read-out: p53 activation efficacy, cherry pick confirmation

Structure (SMILES) | p53 activation EC50, cherry pick confirmation [2] | p53 activation efficacy, cherry pick confirmation [2] | p53 activation EC50, cherry pick confirmation [3] | p53 activation EC50, primary screening [3] | p53 activation efficacy, cherry pick confirmation [3] | p53 activation efficacy, primary screening [3] | Viability EC50, cherry pick confirmation (p53RE-bla HCT-116 cells [4]) | Viability EC50, primary screening (p53RE-bla HCT-116 cells [4]) | EC50 (p53RE-bla HCT-116 cells [6]; [10]) [µM] | EC50 (p53RE-bla HCT-116 cells [6]; [11]) [µM] | EC50 [1, 13] [µM] | Emax [1, 15] [%] | EC50, p53 activation, cherry pick confirmation [2] | EC50, p53 activation, primary screening [2] | Efficacy, p53 activation, cherry pick confirmation [2] | Efficacy, p53 activation, primary screening [2] | EC50, p53 activation, cherry pick confirmation [3] | EC50, p53 activation, primary screening [3] | Efficacy, p53 activation, cherry pick confirmation [3] | Efficacy, p53 activation, primary screening [3] | also measured
Nc1nc(N)c2nc(CNc3ccc(C(=O)N[C@@H](CCC(=O)O)C(=O)O)cc3)cnc2n1 [Aminopterin] |  |  |  |  |  |  |  |  |  |  |  |  |  |  |  |  |  |  |  |  | p53 activation efficacy [1]: 45.6293; Emax [1, 8]: 39.2%; p53 activation efficacy [2]: 37.0427; p53 activation EC50 [3]: inactive; p53 activation efficacy [3]: inactive; Viability EC50 (p53RE-bla HCT-116 cells [4]): inactive; Emax [5, 8]: 48.5%; EC50 (p53RE-bla HCT-116 cells [6]; HCT-116, read-out: Viability EC50): 0.191 µM
COC(=O)C1=C(C)NC(COC(N)=O)=C(C(=O)OC(C)C)C1c1cccc(Cl)c1Cl (centres unmarked) [Lemildipine] | inactive | inactive | inactive | inactive | inactive | inactive | inactive | inactive | 19.9 |  |  |  |  |  |  |  |  |  |  |  | p53 activation EC50, cherry pick confirmation [1]: inactive; p53 activation EC50, primary screening [1]: inactive; p53 activation efficacy, cherry pick confirmation [1]: inactive; p53 activation efficacy, primary screening [1]: inactive; Viability efficacy, primary screening (p53RE-bla HCT-116 cells [4]): inactive; EC50 [5]: 20.7 µM; Emax [5, 9]: 59.7%
CCOP(=S)(OCC)Oc1nc(Cl)n(C(C)C)n1 [Isazofos] |  |  |  |  |  |  |  |  |  |  |  |  |  |  |  |  |  |  |  |  | p53 activation EC50 [1]: inactive; p53 activation efficacy [1]: inactive; EC50 [2]: 8.27 µM; p53 activation efficacy [2]: 50.5712 and 50.6263; p53 activation EC50 [3]: inactive; EC50 ([3]; read-out: p53 activation EC50): 1.62 µM; Viability EC50 (p53RE-bla HCT-116 cells [4]): inactive; Viability efficacy (p53RE-bla HCT-116 cells [4]): inactive; Depletion after 16 h of incubation with cells [7]: 97.88 ± 0.31%
CCOc1ccc2c(c1)C(C)=CC(C)(C)N2 [Ethoxyquin] | inactive | inactive | inactive | inactive | inactive | inactive | inactive | inactive | 51.1 | 54.2 |  |  |  |  |  |  |  |  |  |  | p53 activation EC50, cherry pick confirmation [1]: inactive; p53 activation EC50, primary screening [1]: inactive; p53 activation efficacy, cherry pick confirmation [1]: inactive; p53 activation efficacy, primary screening [1]: inactive; EC50 (p53RE-bla HCT-116 cells [4]; read-out: Viability EC50, cherry pick confirmation): 48.2 µM; EC50 [5]: 39.1 µM; Emax [5, 9]: 50.4%
CC[C@@]1(O)C(=O)OCc2c1cc1n(c2=O)Cc2cc3c(CN(C)C)c(O)ccc3nc2-1 [Topotecan hydrochloride] |  |  |  |  |  |  |  |  |  |  | 0.0771 | 69.5 | inactive | inactive | inactive | inactive | inactive | inactive | inactive | inactive | EC50 [1, 12]: 0.589 µM; Emax [1, 14]: 179%; EC50, viability, cherry pick confirmation (p53RE-bla HCT-116 cells [4]): inactive; EC50, viability, primary screening (p53RE-bla HCT-116 cells [4]): inactive; Efficacy, viability, primary screening (p53RE-bla HCT-116 cells [4]): inactive; EC50 (p53RE-bla HCT-116 cells [6]; [16]): 3.98 µM
Oc1c(I)cc(I)cc1I [2,4,6-Triiodophenol] |  |  |  |  |  |  |  |  |  |  | 20.7 | 27.1 | inactive | inactive | inactive | inactive | inactive | inactive | inactive | inactive | EC50, p53 activation, cherry pick confirmation [1]: inactive; Efficacy, p53 activation, cherry pick confirmation [1]: inactive; EC50, viability, cherry pick confirmation (p53RE-bla HCT-116 cells [4]): inactive; EC50, viability, primary screening (p53RE-bla HCT-116 cells [4]): inactive; EC50 (p53RE-bla HCT-116 cells [6]; [17]): 19 µM
Oc1ccc(Cl)cc1Sc1cc(Cl)ccc1O [Fenticlor] | inactive | inactive | inactive | inactive | inactive | inactive |  | inactive |  | 27.7 |  |  |  |  |  |  |  |  |  |  | EC50 [1, 18]: 18.1 µM; EC50 [1, 19]: 34.2 µM; Emax [1, 20]: 54.9%; Emax [1, 9]: 52.2%; p53 activation EC50, primary screening [2]: inactive; p53 activation efficacy, primary screening [2]: inactive; EC50 (p53RE-bla HCT-116 cells [4]; read-out: Viability EC50, primary screening): 18.7 µM
CN(C)c1ccc(C(=C2C=CC(=[N+](C)C)C=C2)c2ccc(N(C)C)cc2)cc1 [Gentian Violet] |  |  |  |  |  |  |  |  |  |  | 51.1 | 65.5 | inactive | inactive | inactive | inactive | inactive | inactive | inactive | inactive | EC50 [1, 12]: 23.6 µM; Emax [1, 14]: 48.7%; EC50 (p53RE-bla HCT-116 cells [4]; read-out: EC50, viability, cherry pick confirmation): 27.6 µM and 21.3 µM; EC50 (p53RE-bla HCT-116 cells [4]; read-out: EC50, viability, primary screening): 16 µM and 24.9 µM; EC50 (p53RE-bla HCT-116 cells [6]; [16]): 22 µM; EC50 (p53RE-bla HCT-116 cells [6]; [17]): 29.2 µM
Oc1cc(Cl)c(Cl)c(Cl)c1 [3,4,5-Trichlorophenol] |  |  |  |  |  |  |  |  |  |  | 40.3 | 25.7 | inactive | inactive | inactive | inactive | inactive | inactive | inactive | inactive | EC50 [1, 12]: 48.4 µM; Emax [1, 14]: 40.3%; EC50, viability, cherry pick confirmation (p53RE-bla HCT-116 cells [4]): inactive; EC50, viability, primary screening (p53RE-bla HCT-116 cells [4]): inactive; Efficacy, viability, primary screening (p53RE-bla HCT-116 cells [4]): inactive; EC50 (p53RE-bla HCT-116 cells [6]; [16]): 27.4 µM
CC1CCC(C(C)C)C(OC(=O)c2ccccc2N)C1 (centres unmarked) [Menthyl anthranilate] | inactive | inactive | inactive | inactive | inactive | inactive | inactive | inactive | 33.8 | 36 |  |  |  |  |  |  |  |  |  |  | EC50 [1, 18]: 0.837 µM; EC50 [1, 19]: 48.8 µM; Emax [1, 20]: 40.4%; Emax [1, 9]: 62.5%; EC50 [5]: 34.8 µM; Emax [5, 9]: 70.8%
CC(C)C[C@H](NC(=O)[C@H](CCc1ccccc1)NC(=O)CN1CCOCC1)C(=O)N[C@@H](Cc1ccccc1)C(=O)N[C@@H](CC(C)C)C(=O)[C@@]1(C)CO1 [Carfilzomib] | inactive | inactive | inactive | inactive | inactive | inactive | inactive | inactive |  | 0.75 |  |  |  |  |  |  |  |  |  |  | EC50 [1, 18]: 0.0597 µM; EC50 [1, 19]: 0.142 µM; Emax [1, 20]: 111%; Emax [1, 9]: 82%; p53 activation EC50, primary screening [2]: inactive; p53 activation efficacy, primary screening [2]: inactive
Cc1nc(N)nc(N)c1-c1ccc(Cl)c(Cl)c1 [Methodichlorophen] |  |  |  |  |  |  |  |  |  |  | 5.92 | 42.9 | inactive | inactive | inactive | inactive | inactive | inactive | inactive | inactive | EC50 [1, 12]: 9.01 µM; Emax [1, 14]: 31.4%; EC50, viability, cherry pick confirmation (p53RE-bla HCT-116 cells [4]): inactive; EC50, viability, primary screening (p53RE-bla HCT-116 cells [4]): inactive; Efficacy, viability, primary screening (p53RE-bla HCT-116 cells [4]): inactive; EC50 (p53RE-bla HCT-116 cells [6]; [16]): 1.58 µM
CC(C)C[C@H](NC(=O)[C@H](Cc1ccccc1)NC(=O)c1cnccn1)B(O)O [Bortezomib] | inactive | inactive | inactive | inactive | inactive | inactive | inactive | inactive | 0.397 | 0.428 |  |  |  |  |  |  |  |  |  |  | EC50 [1, 18]: 0.101 µM; EC50 [1, 19]: 0.0122 µM; Emax [1, 20]: 134%; Emax [1, 9]: 104%; p53 activation EC50, primary screening [2]: inactive; p53 activation efficacy, primary screening [2]: inactive
